From patent publication US5414010A, “Dimeric benzimidazoles as central nervous system agents” (Warner-Lambert Company, priority 1994, dated 1995)

Key:
human D2 receptors = biological target: T1, human D2 receptors (Homo sapiens, UniProt P14416); assay: Inhibition of [^3 H]spiperone binding to human D2 receptors
T1 construct: expressed in transfected cells
Description: (§1) Dopamine D2 antagonists are established as antipsychotic agents. More recently, the dopamine D3 receptor has been identified. On the basis of the localization of the dopamine D3 receptor in the limbic area of the brain, a selective D3 antagonist should show antipsychotic activity but not have the neurological side effects of D2 antagonists. […] Thus, the compounds of Formula I were tested for their ability to bind to dopamine receptors as measured by their inhibition of [^3 H]spiperone binding to the human D2 and D3 receptors in a receptor assay described by MacKenzie R. G., et al., Characterization of the human D3 dopamine receptor expressed in transfected cell lines, Eur. J. Pharmacol., 266:79 (1994); and for their ability to inhibit locomotor activity in mice and rats, a measure of antipsychotic activity, according to the assay described by McLean J. R., et al., Pharmacology, Biochemistry and Behavior, 8:97- 99 (1978). The above test methods are incorporated herein by reference.

human D3 receptors = biological target: T2, human D3 receptors (Homo sapiens, UniProt P35462); assay: Inhibition of [^3 H]spiperone binding to human D3 receptors
T2 construct: expressed in transfected cells
Description: as §1

rats = assay: Inhibition of locomotor activity in rats; format: in vivo; settings: Rattus norvegicus, IP
From the text: The compounds of Formula I are valuable dopaminergic agents. Dopamine D2 antagonists are established as antipsychotic agents. More recently, the dopamine D3 receptor has been identified. On the basis of the localization of the dopamine D3 receptor in the limbic area of the brain, a selective D3 antagonist should show antipsychotic activity but not have the neurological side effects of D2 antagonists. The tests employed indicate that compounds of Formula I bind selectively to the dopamine D3 receptor. Thus, the compounds of Formula I were tested for their ability to bind to dopamine receptors as measured by their inhibition of [^3 H]spiperone binding to the human D2 and D3 receptors in a receptor assay described by MacKenzie R. G., et al., Characterization of the human D3 dopamine receptor expressed in transfected cell lines, Eur. J. Pharmacol., 266:79 (1994); and for their ability to inhibit locomotor activity in mice and rats, a measure of antipsychotic activity, according to the assay described by McLean J. R., et al., Pharmacology, Biochemistry and Behavior, 8:97- 99 (1978). The above test methods are incorporated herein by reference.

T1 sequence (P14416 whole entry): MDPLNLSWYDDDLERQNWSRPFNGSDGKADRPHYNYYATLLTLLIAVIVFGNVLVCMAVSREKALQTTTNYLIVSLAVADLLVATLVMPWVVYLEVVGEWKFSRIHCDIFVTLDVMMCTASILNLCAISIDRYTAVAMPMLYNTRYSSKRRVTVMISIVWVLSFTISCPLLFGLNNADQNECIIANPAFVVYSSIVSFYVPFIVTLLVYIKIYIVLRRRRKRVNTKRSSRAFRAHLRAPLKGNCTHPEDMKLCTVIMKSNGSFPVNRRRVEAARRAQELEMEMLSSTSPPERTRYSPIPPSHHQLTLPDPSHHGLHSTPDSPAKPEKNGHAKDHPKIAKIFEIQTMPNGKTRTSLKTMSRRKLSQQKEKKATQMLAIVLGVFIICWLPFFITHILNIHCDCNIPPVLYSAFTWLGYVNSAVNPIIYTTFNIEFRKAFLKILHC
T2 sequence (P35462 whole entry): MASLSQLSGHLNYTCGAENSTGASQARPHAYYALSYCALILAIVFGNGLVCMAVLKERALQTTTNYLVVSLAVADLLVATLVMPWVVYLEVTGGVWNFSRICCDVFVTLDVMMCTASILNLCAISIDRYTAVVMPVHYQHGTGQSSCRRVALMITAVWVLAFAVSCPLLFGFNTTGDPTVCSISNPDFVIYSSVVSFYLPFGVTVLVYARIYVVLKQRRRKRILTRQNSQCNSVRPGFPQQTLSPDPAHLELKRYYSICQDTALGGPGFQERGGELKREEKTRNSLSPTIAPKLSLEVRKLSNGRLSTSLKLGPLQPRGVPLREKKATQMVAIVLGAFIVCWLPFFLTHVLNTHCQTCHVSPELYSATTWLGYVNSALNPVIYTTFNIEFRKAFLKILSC

| Structure (SMILES) | IC50 (human D2 receptors) | IC50 (human D3 receptors) | ED50 (rats) |
| --- | --- | --- | --- |
| CN(C)CCCOc1ccc(-c2nc3ccccc3n2C/C=C/Cn2c(-c3ccc(OCCCN(C)C)cc3)nc3ccccc32)cc1 [Example 5, E-(3-{4-[1-(4-{2-[4-(3-Dimethylaminopropoxy)phenyl]benzoimidazol-1-yl}but-2-enyl)-1H-benzoimidazol-2-yl]phenoxy}propyl)dimethylamine] |  | 0.143 µM |  |
| CCCN(CCC)CCCOc1ccc(-c2nc3ccccc3n2C/C=C/Cn2c(-c3ccc(OCCCN(CCC)CCC)cc3)nc3ccccc32)cc1 [Example 2, E-(3-{4-[1-(4-{2-[4-(3-Dipropylaminopropoxy)phenyl]benzoimidazol-1-yl}but-2-enyl)-1H-benzoimidazol-2-yl]phenoxy}propyl)dipropylamine] |  | 0.005 µM |  |
| C(=C\Cn1c(-c2ccc(OCCCN3CCCCC3)cc2)nc2ccccc21)/Cn1c(-c2ccc(OCCCN3CCCCC3)cc2)nc2ccccc21 [Example 6] |  | 0.009 µM |  |
| C(=C\Cn1c(-c2ccc(OCCCN3CCCC3)cc2)nc2ccccc21)/Cn1c(-c2ccc(OCCCN3CCCC3)cc2)nc2ccccc21 [Example 1] |  | 0.009 µM |  |
| NCCCOc1ccc(-c2nc3ccccc3n2C/C=C/Cn2c(-c3ccc(OCCCN4CCN(c5ccccc5)CC4)cc3)nc3ccccc32)cc1 [Example 15] | 0.803 µM | 0.019 µM |  |
| CCN(CC)CCCOc1cccc(-c2nc3ccccc3n2C/C=C/Cn2c(-c3cccc(OCCCN(CC)CC)c3)nc3ccccc32)c1 [Example 7, E-(3-{3-[1-(4-{2-[3-(3-Diethylaminopropoxy)phenyl]benzoimidazol-1-yl}but-2-enyl)-1H-benzoimidazol-2-yl]phenoxy}propyl)diethylamine] | 2.45 µM | 0.016 µM |  |

Further lines, with some results ahead:

| IC50 (human D2 receptors) | IC50 (human D3 receptors) | Structure (SMILES) | ED50 (rats) |
| --- | --- | --- | --- |
| 0.427 µM |  | CCCCN(CCCC)CCCOc1ccc(-c2nc3ccccc3n2C/C=C/Cn2c(-c3ccc(OCCCN(CCCC)CCCC)cc3)nc3ccccc32)cc1 [Example 8, E-Dibutyl-(3-{4-[1-(4-{2-[4-(3-dibutylaminopropoxy)phenyl]benzoimidazol-1-yl}-but-2-enyl)-1H-benzoimidazol-2-yl]phenoxy}propyl)amine] |  |
| 3.07 µM | 0.11 µM | CCN(CC)CCNC(=O)c1ccc(-c2nc3ccccc3n2CCCCn2c(-c3ccc(C(=O)NCCN(CC)CC)cc3)nc3ccccc32)cc1 [Example 17] |  |
| 1.07 µM | 0.036 µM | CCN(CC)CCCOc1ccc(-c2nc3ccccc3n2CCCCn2c(-c3ccc(OCCCN(CC)CC)cc3)nc3ccccc32)cc1 [Example 12, (3-{4-[1-(4-{2-[4-(3-Diethylaminopropoxy)phenyl]benzoimidazol-1-yl}butyl)-1H-benzoimidazol-2-yl]phenoxy}propyl)diethylamine] | 2.8 mg/kg |
|  | 0.016 µM | CCN(CC)CCCOc1ccc(-c2nc3ccccc3n2C/C=C/Cn2c(-c3ccc(OCCCN(CC)CC)cc3)nc3ccccc32)cc1 [Example 10, E-(3-{4-[1-(4-{2-[4-(3-Diethylaminopropoxy)phenyl]benzoimidazol-1-yl}but-2-enyl)-1H-benzoimidazol-2-yl]phenoxy}propyl)diethylamine] | 3.9 mg/kg |
| 2.74 µM | 0.016 µM | CCCN(CCC)CCCOc1ccc(-c2nc3ccccc3n2CCCCn2c(-c3ccc(OCCCN(CCC)CCC)cc3)nc3ccccc32)cc1 [Example 11, (3-{4-[1-(4-{2-[4-(3-Dipropylaminopropoxy)phenyl]benzoimidazol-1-yl}butyl)-1H-benzoimidazol-2-yl]phenoxy}propyl)dipropylamine] |  |
| 6.43 µM |  | CCN(CC)CCCOc1ccc(-c2nc3ccccc3n2C/C=C/Cn2c(-c3ccccc3)nc3ccccc32)cc1 [Example 13, Diethyl-[3-(4-{1-[4-(2-phenylbenzoimidazol-1-yl)but-2-enyl]-1H-benzoimidazol-2-yl}phenoxy)propyl]amine] |  |
| 0.2 µM | 0.006 µM | CC(C)N(C)CCCOc1ccc(-c2nc3ccccc3n2C/C=C/Cn2c(-c3ccc(OCCCN(C)C(C)C)cc3)nc3ccccc32)cc1 [Example 9, E-Isopropyl-[3-(4-{1-[4-(2-{4-[3-(isopropylmethylamino)propoxy]phenyl}benzoimidazol-1-yl)but-2-enyl]-1H-benzoimidazol-2-yl}phenoxy)propyl]methylamine] |  |
| 1.43 µM | 0.085 µM | CCN1CCCC1CNC(=O)c1ccc(-c2nc3ccccc3n2CCCCn2c(-c3ccc(C(=O)NCC4CCCN4CC)cc3)nc3ccccc32)cc1 (centres unmarked) [Example 16] |  |
